Several values for one entry are separate records, joined by “and”; a condition that tells them apart may be missing. Identical values can stand only once. Counter-ions that a name gives are not always drawn. Like-named read-outs stand apart in the source and are kept apart here.
Key:
[1] = test system: HT29 human colon tumor cells; test: in vivo antineoplastic activity, NOD-SCID mice xenografted with HT29 human tumour cells
Procedure: (§1) The animal model chosen is that of severe combined immunodeficient (NOD-SCID) mice having received a xenograft of human tumor cells.
(§2) Male and female NOD-SCID mice, more than 3 months old, were raised in an environment of strict sterility, in an insulator ventilated with filtered air and sterilized, at 22° C. and 40% humidity, with a day-12 h/night-12 h cycle. The cages, feeding bottles and the water were sterilized in an autoclave at 120° C. for 30 minutes and the food as well as the bedding were treated with γ-irradiation. All handling took place in aseptic conditions under a laminar flow hood.
The mice were subjected to general anaesthesia by i.p. injection of 0.3 to 0.4 ml of hypnomidate at 2 mg/ml. 1×10^7 HT29 human colon tumor cells in suspension in 200 μl of PBS were then injected sub-cutaneously, into the backs of the mice. […]
50 mg of 5-fluorouracil (Sigma) were dissolved in 8 ml of water and the solution obtained was sterilized by filtration on a membrane with 0.22 μm porosity. […]

[2] = Procedure: as §1, §2
150 mg of cyclophosphamide (Sigma) were dissolved in 8 ml of water and the solution obtained was sterilized by filtration on a membrane with 0.22 μm porosity.
50 mg of 5-fluorouracil (Sigma) were dissolved in 8 ml of water and the solution obtained was sterilized by filtration on a membrane with 0.22 μm porosity.
100 mg of dihydrated harmalacidine hydrochloride were dissolved in 8 ml of water and the solution obtained was sterilized by filtration on a membrane with 0.22 μm porosity. The mice received either 25, 50, or 100 mg/kg/day of harmalacidine alone, or a mixture of 25 or 50 mg/kg/day of harmalacidine+50 mg/kg/day of cyclophosphamide.

[3] = test system: malignant and endothelial cells tested; test: summary of in vitro cytotoxicity over all lines tested; format: cell-based, human; details: range over the cell lines, read-out: IC50 vis-à-vis malignant and endothelial cells tested
Procedure: (§3) The cytotoxic effects of the different alkaloid extracts of P. harmala were studied on several cell lines: • human leukemia cell lines: K562 and Jurkat (leukemia), U937 (myeloma), • human solid tumor cell lines: KB (epithelioma of the nasopharynx) and HT29 (colon), • immortalized human bone marrow endothelial cell lines: HBMEC.
(§4) The cells are cultured in an oven under a 5% CO2 atmosphere and at 37° C., in RPMI 1640 medium for K562, Jurkat, U937 and HT29 and DMEM for KB, supplemented with 10% foetal calf serum, 0.01% penicillin-streptomycin and L-glutamine 2 mM and in EGM2 medium for the HBMEC cells.
(§5) The cytotoxicity test is carried out in a 96-well microplate in the presence of the extract to be tested at varying concentrations of 40, 20, 10, 5, 1, 0.5 μg/ml and in the absence of product, after incubation for 4 days at 37° C. On the 3rd day, a solution of neutral red is added which is absorbed by living cells. The optical density (OD) of dye released by lyzed cells is measured at 540 nm by an Elisa plate reader. The toxicity (% inhibition of growth) is inversely proportional to the optical density.
(§6) The percentage of inhibition is defined as being the difference between the OD without product and the OD in the presence of product compared to the OD without product.
(§7) The concentration inhibiting 50% of cell growth is obtained from the curve representing the percentage of inhibition as a function of the logarithm of the concentration.
To summarize, the IC50 vis-à-vis malignant and endothelial cells tested is the following: […]

[4] = test system: HBMEC (immortalized human bone marrow endothelial cell lines); test: in vitro cytotoxicity test (neutral red, 96-well microplate); format: cell-based; details: 96 h, incubation 4 days
Procedure: as §3, §4, §5, §6, §7

Jurkat (leukemia) = test: as above; format: cell-based; details: Homo sapiens, 96 h, incubation 4 days
Procedure: as §3, §4, §5, §6, §7

K562 (leukemia) = test: as above; format: cell-based; details: Homo sapiens, incubation 4 days
Procedure: as §3, §4, §5, §6, §7

[5] = test system: KB (epithelioma of the nasopharynx); test: as above; format: cell-based; details: Homo sapiens, 96 h, incubation 4 days
Procedure: as §3, §4, §5, §6, §7

U937 (myeloma) = test: as above; format: cell-based; details: Homo sapiens, U-937, 96 h, incubation 4 days
Procedure: as §3, §4, §5, §6, §7

CC[C@]1(O)C[C@@H]2CN(CCc3c([nH]c4ccccc34)[C@@](C(=O)OC)(c3cc4c(cc3OC)N(C)[C@H]3[C@@](O)(C(=O)OC)[C@H](OC(C)=O)[C@]5(CC)C=CCN6CC[C@]43[C@@H]65)C2)C1 [vinblastine, reference compound]
antineoplastic activity ([1]; vinblastine between 0.125 and 0.5 mg/kg/day, sub-cutaneous administration, until the 40th day): dose-dependent
tolerance of the dose ([2]; mouse, in vivo): not tolerated

COc1ccc2c(c1)[nH]c1c(C)nccc12 [Harmine•HCl•2H2O, dihydrated harmine hydrochloride]
IC50 ([3]; hydrochloride): 10.5 to 35 µM

O=c1[nH]cc(F)c(=O)[nH]1 [5-fluorouracil]
Average volume of the tumours of the treated mice compared to the average volume of the tumours of the non-treated mice (T/C) (%) ([1]; 5-fluorouracil 3 mg/kg/day alone per os, Day 15): 43%
Average volume of the tumours of the treated mice compared to the average volume of the tumours of the non-treated mice (T/C) (%) ([1]; 5-fluorouracil 3 mg/kg/day alone per os, Day 30): 56%
Average volume of the tumours of the treated mice compared to the average volume of the tumours of the non-treated mice (T/C) (%) ([1]; 5-fluorouracil 3 mg/kg/day alone per os, Day 40): 66%
Average volume of the tumours of the treated mice compared to the average volume of the tumours of the non-treated mice (T/C) (%) ([1]; 5-fluorouracil 3 mg/kg/day alone per os, Day 50): 61%
Average volume of the tumours of the treated mice compared to the average volume of the tumours of the non-treated mice (T/C) (%) ([1]; 5-fluorouracil 3 mg/kg/day alone per os, Day 60): 86%
Average volume of the tumours of the treated mice compared to the average volume of the tumours of the non-treated mice (T/C) (%) ([1]; 5-fluorouracil 6 mg/kg/day alone per os, Day 15): 37%
Average volume of the tumours of the treated mice compared to the average volume of the tumours of the non-treated mice (T/C) (%) ([1]; 5-fluorouracil 6 mg/kg/day alone per os, Day 30): 53%
Average volume of the tumours of the treated mice compared to the average volume of the tumours of the non-treated mice (T/C) (%) ([1]; 5-fluorouracil 6 mg/kg/day alone per os, Day 40): 60%
Average volume of the tumours of the treated mice compared to the average volume of the tumours of the non-treated mice (T/C) (%) ([1]; 5-fluorouracil 6 mg/kg/day alone per os, Day 50): 64%
Average volume of the tumours of the treated mice compared to the average volume of the tumours of the non-treated mice (T/C) (%) ([1]; 5-fluorouracil 6 mg/kg/day alone per os, Day 60): 70%
Average volume of the tumours of the treated mice compared to the average volume of the tumours of the non-treated mice (T/C) (%) ([1]; 5-fluorouracil 9 mg/kg/day alone per os, Day 15): 41%
Average volume of the tumours of the treated mice compared to the average volume of the tumours of the non-treated mice (T/C) (%) ([1]; 5-fluorouracil 9 mg/kg/day alone per os, Day 30): 41%
Average volume of the tumours of the treated mice compared to the average volume of the tumours of the non-treated mice (T/C) (%) ([1]; 5-fluorouracil 9 mg/kg/day alone per os, Day 40): 59%
Average volume of the tumours of the treated mice compared to the average volume of the tumours of the non-treated mice (T/C) (%) ([1]; 5-fluorouracil 9 mg/kg/day alone per os, Day 50): 52%
Average volume of the tumours of the treated mice compared to the average volume of the tumours of the non-treated mice (T/C) (%) ([1]; 5-fluorouracil 9 mg/kg/day alone per os, Day 60): 59%
Average volume of the tumours of the treated mice compared to the average volume of the tumours of the non-treated mice (T/C) (%) ([1]; 5-fluorouracil 12 mg/kg/day alone per os, Day 15): 73%
Average volume of the tumours of the treated mice compared to the average volume of the tumours of the non-treated mice (T/C) (%) ([1]; 5-fluorouracil 12 mg/kg/day alone per os, Day 30): 66%
Average volume of the tumours of the treated mice compared to the average volume of the tumours of the non-treated mice (T/C) (%) ([1]; 5-fluorouracil 12 mg/kg/day alone per os, Day 40): 54%
Average volume of the tumours of the treated mice compared to the average volume of the tumours of the non-treated mice (T/C) (%) ([1]; 5-fluorouracil 12 mg/kg/day alone per os, Day 50): 47%
Average volume of the tumours of the treated mice compared to the average volume of the tumours of the non-treated mice (T/C) (%) ([1]; 5-fluorouracil 12 mg/kg/day alone per os, Day 60): 59%
T/C ([1]; 5-fluorouracil 24 mg/kg/d, alternating 6 days of treatment and 6 days of rest, until the 20th day of the treatment): 17%
Average volume of the tumours of the treated mice compared to the average volume of the tumours of the non-treated mice (T/C) (%) ([1]; 5-fluorouracil 24 mg/kg/day alone, alternating 6 days of treatment and 6 days of rest, Day 15): 17%
Average volume of the tumours of the treated mice compared to the average volume of the tumours of the non-treated mice (T/C) (%) ([1]; 5-fluorouracil 24 mg/kg/day alone, alternating 6 days of treatment and 6 days of rest, Day 30): 54%
Average volume of the tumours of the treated mice compared to the average volume of the tumours of the non-treated mice (T/C) (%) ([1]; 5-fluorouracil 24 mg/kg/day alone, alternating 6 days of treatment and 6 days of rest, Day 40): 54%
day of administration at which the dose becomes lethal ([2]; both, NOD-SCID, mouse, in vivo): 35 to 45 days

dihydrated harmalacidine hydrochloride
IC50 [3]: 34.4 to 134 µM

O=C1NCCc2c1[nH]c1cc(O)ccc21 [Demethyl-harmalacidine (D), demethyl harmalacidine]
IC50 [4]: 17 µg/mL and 84.1 µM
IC50 (Jurkat (leukemia)): 8.5 µg/mL and 42 µM
IC50 (K562 (leukemia); K562, 96 h): 20 µg/mL and 99 µM
IC50 [5]: 10 µg/mL and 49.5 µM

O=P1(N(CCCl)CCCl)NCCCO1 (centres unmarked) [cyclophosphamide]
Average volume of the tumours of the treated mice compared to the average volume of the tumours of the non-treated mice (T/C) (%) ([1]; cyclophosphamide 50 mg/kg/day alone, Day 15): 63%
Average volume of the tumours of the treated mice compared to the average volume of the tumours of the non-treated mice (T/C) (%) ([1]; cyclophosphamide 50 mg/kg/day alone, Day 30): 42%
Average volume of the tumours of the treated mice compared to the average volume of the tumours of the non-treated mice (T/C) (%) ([1]; cyclophosphamide 50 mg/kg/day alone, Day 40): 37%
Average volume of the tumours of the treated mice compared to the average volume of the tumours of the non-treated mice (T/C) (%) ([1]; cyclophosphamide 50 mg/kg/day alone, Day 50): 36%
Average volume of the tumours of the treated mice compared to the average volume of the tumours of the non-treated mice (T/C) (%) ([1]; cyclophosphamide 50 mg/kg/day alone, Day 60): 32%
Average volume of the tumours of the treated mice compared to the average volume of the tumours of the non-treated mice (T/C) (%) ([1]; cyclophosphamide 100 mg/kg/day alone, Day 15): 47%
Average volume of the tumours of the treated mice compared to the average volume of the tumours of the non-treated mice (T/C) (%) ([1]; cyclophosphamide 100 mg/kg/day alone, Day 30): 25%
Average volume of the tumours of the treated mice compared to the average volume of the tumours of the non-treated mice (T/C) (%) ([1]; cyclophosphamide 100 mg/kg/day alone, Day 40): 18%
Average volume of the tumours of the treated mice compared to the average volume of the tumours of the non-treated mice (T/C) (%) ([1]; cyclophosphamide 100 mg/kg/day alone, Day 50): 14%
Average volume of the tumours of the treated mice compared to the average volume of the tumours of the non-treated mice (T/C) (%) ([1]; cyclophosphamide 100 mg/kg/day alone, Day 60): 15%
Average volume of the tumours of the treated mice compared to the average volume of the tumours of the non-treated mice (T/C) (%) ([1]; cyclophosphamide 150 mg/kg/day alone, Day 15): 4%
tolerance of the dose ([2]; cyclophosphamide 150 mg/kg/day alone, all died around the 15th day of treatment): did not tolerate

OC1CCN2Cc3ccccc3N=C12 (centres unmarked) [Peganine (B), Peganine]
IC50 (Jurkat (leukemia)): 75 µg/mL and 399 µM
IC50 (K562 (leukemia); K562, 96 h): 35 µg/mL and 186 µM
IC50 [5]: > 50 µg/mL and > 266 µM

CC[C@@]1(O)C(=O)OCc2c1cc1n(c2=O)Cc2cc3ccccc3nc2-1 [Camptothecin, reference compound]
IC50 [4]: 0.025 µg/mL and 70 nM
IC50 (Jurkat (leukemia)): 0.003 µg/mL and 90 nM
IC50 (K562 (leukemia); 96 h): 0.014 µg/mL and 40 nM
IC50 [5]: 0.035 µg/mL and 100 nM
IC50 (U937 (myeloma)): 0.023 µg/mL and 70 nM
